US7223400B2, “Method to prepare compositions comprising yeast treated with electromagnetic energy” (Ultra Biotech Limited, priority 2003, dated 2007)

How the values were obtained:
[1] = tested on: stomach cancer cells (cell line from a DMH-induced Wistar rat stomach cancer); assay: Wistar rat model of transplanted stomach cancer, growth of the tumor; assay type: in vivo, Wistar rats; details: 22nd day from tumor inoculation; 21 consecutive days; AY/NY 0.8 ml oral once per day, ADM 10^5 units per kg i.v. per day
Source text: The growth of the tumor in the rats was studied.
Numerous animal studies have reported the use of Wistar rats in the study of treating stomach cancer. 1,2-dimethylhydrazine (DMH) is a well-known effective trigger of stomach cancer in rats. Accordingly, this experiment used DMH in designing Wistar rat model of human stomach cancer. Detailed description of the use of 1,2-dimethylhydrazine to induce stomach cancer can be found in Watanabe H. et al., 1999, Jpn J Cancer Res. 90(11):1207–11, which is incorporated herein by reference in its entirety.
The animals used in the experiments were Wistar rats (obtainable from the Chinese Academy of Military Medical Sciences, Beijing, China). The stomach cancer cell line (obtainable from the First Military Medical University of China, Guangzhou, China) was generated in 1991 from a Wistar rat stomach cancer which was induced by subcutaneous injection of DMH. The rats were injected subcutaneously with 2.5×10^6 stomach cancer cells per animal.
In group AY, the rats received 0.8 ml of the biological composition once per day. In group NY, the rats received 0.8 ml of the untreated yeast cells once per day. In group ADM, the rats were injected intravenously with 10^5 units of doxorubicin (adriamycin, ADM) per kg body weight per day. In group CK1, the rats received 0.8 ml of physiological saline once per day. […]

[2] = tested on: stomach cancer cells (cell line from a DMH-induced Wistar rat stomach cancer); assay: Wistar rat model of transplanted stomach cancer, survival time; assay type: in vivo, Wistar rats; details: for Number of live animals remaining in the groups after 21 days of treatment: 30 rats per group
Method: In group 2ADM, the rats were injected intravenously with 1.5×10^5 units of doxorubicin (adriamycin, ADM) per kg body weight per day.

[3] = tested on: stomach cancer cell line S784; assay: TA2 mouse model of stomach cancer, growth of tumors; assay type: in vivo, TA2 mice; details: 31st day from tumor inoculation; 30 consecutive days; AY/NY 0.3 ml oral once per day, ADM 10^5 units per kg i.v. per day
Source text: The growth of tumors in the mice was studied.
Numerous animal studies have reported the use of murine models in the study of treating stomach cancer. Methylcholanthrene (MC) is a well-known effective trigger of stomach cancer in mice. Accordingly, this experiment used MC in designing TA2 mouse model of human stomach cancer. Detailed description of the use of methylcholanthrene to induce stomach cancer can be found in Wang X. H. et al., 1984, Chin Med J (Engl) 97(3):215–22, which is incorporated herein by reference in its entirety.
The animals used for the experiments were TA2 mice, 6 to 8 weeks old (obtainable from the Second Military Medical University, Shanghai, China). Both male and females with an average weight of about 18 to 20 gram were used. The stomach cancer cell line S784 (obtainable from MC-treated TA2 mouse provided by the Tianjian Medical University, China) in a suspension containing about 1.2×10^7 viable tumor cells (about 0.2 ml cell culture) was injected subcutaneously into the animals.
In group ADM, the mice were injected intravenously with 10^5 units of doxorubicin (adriamycin, ADM) per kg body weight per day.

[4] = tested on: stomach cancer cell line S784; assay: Mouse model of stomach cancer, survival time; assay type: in vivo, TA2 mice; details: for Number of live animals remaining in the groups after 30 days of treatment: 30 mice per group
Method: In group 2ADM, the mice were injected intravenously with 1.5×10^5 units of doxorubicin (adriamycin, ADM) per kg body weight per day.

[5] = 1 month after cessation of treatment
[6] = 2 months after cessation of treatment
[7] = 3 months after cessation of treatment
[8] = 4 months after cessation of treatment
[9] = 5 months after cessation of treatment
[10] = 6 months after cessation of treatment
[11] = rats that survived, observed over 6 months, 1.2 ml oral or ADM 1.5×10^5 units per kg i.v. per day, 21 days
[12] = mice that survived, observed over 6 months, 0.5 ml oral or ADM 1.5×10^5 units per kg i.v. per day

SMILES: COc1cccc2c1C(=O)c1c(O)c3c(c(O)c1C2=O)C[C@@](O)(C(=O)CO)C[C@@H]3O[C@H]1C[C@H](N)[C@H](O)[C@H](C)O1 [ADM, doxorubicin]
- mean weight of rats and standard deviation [1]: 181.8 ± 12.8 g
- mean weight of tumor nodules and standard deviation [1]: 446.4 ± 13.6 mg
- Number of live animals remaining in the groups after 21 days of treatment ([2]; 0 month after cessation of treatment, 1.2 ml oral or ADM 1.5×10^5 units per kg i.v. per day): 30
- Number of live animals remaining in the groups after 21 days of treatment [2, 5]: 30
- survival of rats bearing stomach cancer cells ([2]; 1.2 ml oral per day or ADM 1.5×10^5 units per kg per day, from injection of tumor cells): all died after four months
- Number of live animals remaining in the groups after 21 days of treatment [2, 6]: 30
- Number of live animals remaining in the groups after 21 days of treatment [2, 7]: 22
- Number of live animals remaining in the groups after 21 days of treatment [2, 8]: 17
- Number of live animals remaining in the groups after 21 days of treatment [2, 9]: 13
- Number of live animals remaining in the groups after 21 days of treatment [2, 10]: 0
- mean weight of rats and standard deviation [2, 11]: all animals dead
- mean weight of tumor nodules and standard deviation [2, 11]: all animals dead
- mean weight of mice and standard deviation [3]: 19.8 ± 0.8 g
- mean weight of stomach and standard deviation [3]: 621 ± 17 mg
- mean weight of tumor nodules and standard deviation [3]: 346 ± 36 mg
- Number of live animals remaining in the groups after 30 days of treatment ([4]; 0 month after cessation of treatment, 0.5 ml oral or ADM 1.5×10^5 units per kg i.v. per day): 30
- survival of mice bearing stomach cancer cells ([4]; 0.5 ml oral per day or ADM 1.5×10^5 units per kg per day, from injection of tumor cells): all died after four months
- Number of live animals remaining in the groups after 30 days of treatment [4, 5]: 30
- Number of live animals remaining in the groups after 30 days of treatment [4, 6]: 27
- Number of live animals remaining in the groups after 30 days of treatment [4, 7]: 16
- Number of live animals remaining in the groups after 30 days of treatment [4, 8]: 7
- Number of live animals remaining in the groups after 30 days of treatment [4, 9]: 0
- Number of live animals remaining in the groups after 30 days of treatment [4, 10]: 0
- mean weight of mice and standard deviation [4, 12]: all animals dead
- mean weight of stomach and standard deviation [4, 12]: all animals dead
- mean weight of tumor nodules and standard deviation [4, 12]: all animals dead
